# Experimental data as given in US8404643B2, “Metastin derivatives and use thereof” (priority 2005, dated 2013).
# Numbered stars: 1 amine (or outer) side, 2 acyl side, 3 side chain; on linkers, the order of the positions; unused ones are H or OH. Square brackets hold non-standard residues; d marks the D form. Peptide text beside a SMILES is read from it. * marks the point of attachment. Pro(trans-4-F) = O=C(O)[C@@H]1C[C@@H](F)CN1; Nip(3R) = O=C([C@@H]1CCCN([*:1])C1)[*:2]; Phe(4-Cl) = N[C@@H](Cc1ccc(Cl)cc1)C(=O)O; Phe(3-F) = N[C@@H](Cc1cccc(F)c1)C(=O)O; Phe(4-F) = N[C@@H](Cc1ccc(F)cc1)C(=O)O; Arg(Me) = CNC(=N)NCCC[C@H](N)C(=O)O; Hyp = O=C(O)[C@@H]1C[C@@H](O)CN1; Pip(4-aza) = O=C(O)[C@@H]1CNCCN1; Orn = NCCC[C@H](N)C(=O)O; Aze = O=C(O)[C@@H]1CCN1; Aib = CC(C)(N)C(=O)O; NHBn = c1ccc(CN*)cc1; azaGly = NNC(=O)O
# Molecular target: T1, hOT7T175 (Homo sapiens, UniProt Q969F8)
# T1 construct: expressed in transfected cells
# Test: Assay for intracellular Ca ion level-increasing activity using FLIPR
# Type: cell-based
# Conditions: hOT7T175/CHO cells, relative to Metastin (1-54)
# Outline: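 CHO/dhfr− cells stably transfected with hOT7T175, selected for high metastin response, loaded with Fluo3-AM for 1 h at 37 °C in HANKS/HBSS (pH 7.4) with probenecid. Peptides were diluted from 1×10^−3 M DMSO stock into HANKS/HBSS with 2.5 mM probenecid, 0.2% BSA, 0.1% CHAPS; intracellular Ca rise read by FLIPR.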
# T1 sequence (Q969F8 whole entry L364H): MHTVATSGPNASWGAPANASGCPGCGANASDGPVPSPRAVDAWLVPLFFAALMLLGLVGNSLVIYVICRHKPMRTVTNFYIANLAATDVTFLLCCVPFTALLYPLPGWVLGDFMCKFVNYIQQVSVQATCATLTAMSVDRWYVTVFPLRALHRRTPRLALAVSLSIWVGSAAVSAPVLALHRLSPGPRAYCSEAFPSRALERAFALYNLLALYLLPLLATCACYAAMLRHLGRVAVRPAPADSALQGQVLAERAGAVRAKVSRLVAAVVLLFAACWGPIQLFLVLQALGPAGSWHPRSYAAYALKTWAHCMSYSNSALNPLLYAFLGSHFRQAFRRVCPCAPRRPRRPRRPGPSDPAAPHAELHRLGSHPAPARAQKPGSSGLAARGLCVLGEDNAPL
row,Compound,Specific Activity: intracellular Ca ion level-increasing activity [specific activity to Metastin (1-54)]
1,Ac-D-Tyr-D-Trp-Asn-D-Pro-Phe-AzaGly-Leu-Arg(Me)-Trp-NH2 (Ac-[dY][dW]N[dP]F[azaGly]L[Arg(Me)]W-NH2; SMILES CNC(=N)NCCC[C@H](NC(=O)[C@H](CC(C)C)NC(=O)NNC(=O)[C@H](Cc1ccccc1)NC(=O)[C@H]1CCCN1C(=O)[C@H](CC(N)=O)NC(=O)[C@@H](Cc1c[nH]c2ccccc12)NC(=O)[C@@H](Cc1ccc(O)cc1)NC(C)=O)C(=O)N[C@@H](Cc1c[nH]c2ccccc12)C(N)=O) [Compound No. 719],3.8
2,"CNC(=N)NCCC[C@H](NC(=O)[C@H](CC(C)C)NC(=O)NNC(=O)[C@H](Cc1ccccc1)NC(=O)[C@@H](NC(=O)[C@H](CC(N)=O)NC(C)=O)[C@@H](C)O)C(=O)N[C@@H](Cc1c[nH]c2ccccc12)C(N)=O [Compound No. 709, Ac-Asn-Thr-Phe-AzaGly-Leu-Arg(Me)-Trp-NH2] (Ac-NTF[azaGly]L[Arg(Me)]W-NH2)",9.8
3,"CNC(=N)NCCC[C@H](NC(=O)[C@H](CC(C)C)NC(=O)NNC(=O)[C@H](Cc1ccccc1)NC(=O)[C@@H](NC(=O)[C@H](CC(N)=O)NC(=O)[C@H](CCC(=O)O)NC(=O)[C@@H](Cc1ccc(O)cc1)NC(C)=O)[C@@H](C)O)C(=O)N[C@@H](Cc1c[nH]c2ccccc12)C(N)=O [Compound No. 746, Ac-D-Tyr-Glu-Asn-Thr-Phe-AzaGly-Leu-Arg(Me)-Trp-NH2] (Ac-[dY]ENTF[azaGly]L[Arg(Me)]W-NH2)",2.2
4,"CNC(=N)NCCC[C@H](NC(=O)[C@H](CC(C)C)NC(=O)NNC(=O)[C@H](Cc1ccccc1)NC(=O)[C@@H](NC(=O)[C@H](CC(N)=O)NC(=O)[C@@H]1CCCN(C(=O)[C@@H](Cc2ccc(O)cc2)NC(C)=O)C1)[C@@H](C)O)C(=O)N[C@@H](Cc1c[nH]c2ccccc12)C(N)=O [Compound No. 722, Ac-D-Tyr-Pic(3)-Asn-Thr-Phe-AzaGly-Leu-Arg(Me)-Trp-NH2] (Ac-[dY][Nip(3R)]NTF[azaGly]L[Arg(Me)]W-NH2)",2.2
5,"CNC(=N)NCCC[C@H](NC(=O)[C@H](CC(C)C)NC(=O)NNC(=O)[C@H](Cc1ccccc1)NC(=O)[C@@H](NC(=O)[C@H](CC(N)=O)NC(=O)[C@@H]1CCN1C(=O)[C@@H](Cc1ccc(O)cc1)NC(C)=O)[C@@H](C)O)C(=O)N[C@@H](Cc1c[nH]c2ccccc12)C(N)=O [Compound No. 720, Ac-D-Tyr-Aze(2)-Asn-Thr-Phe-AzaGly-Leu-Arg(Me)-Trp-NH2] (Ac-[dY][Aze]NTF[azaGly]L[Arg(Me)]W-NH2)",0.8
6,Ac-D-Tyr-Aze(3)-Asn-Thr-Phe-AzaGly-Leu-Arg(Me)-Trp-NH2 [Compound No. 730],4.1
7,"CC(=O)N[C@H](Cc1ccc(O)cc1)C(=O)N1C[C@H](O)C[C@H]1C(=O)N[C@@H](CC(N)=O)C(=O)N[C@H](C(=O)N[C@@H](Cc1ccccc1)C(=O)NNC(=O)N[C@@H](CC(C)C)C(=O)N[C@@H](CCCNC(=N)N)C(=O)N[C@@H](Cc1c[nH]c2ccccc12)C(N)=O)[C@@H](C)O [Compound No. 797, Ac-D-Tyr-Hyp-Asn-Thr-Phe-AzaGly-Leu-Arg-Trp-NH2] (Ac-[dY][Hyp]NTF[azaGly]LRW-NH2)",1.4
8,"CNC(=N)NCCC[C@H](NC(=O)[C@H](CC(C)C)NC(=O)NNC(=O)[C@H](Cc1ccccc1)NC(=O)[C@@H](NC(=O)[C@H](CC(=O)NCc1ccccc1)NC(=O)[C@@H](Cc1c[nH]c2ccccc12)NC(=O)[C@@H](Cc1ccc(O)cc1)NC(C)=O)[C@@H](C)O)C(=O)N[C@@H](Cc1c[nH]c2ccccc12)C(N)=O [Compound No. 716, Ac-D-Tyr-D-Trp-Asp(NHBzl)-Thr-Phe-AzaGly-Leu-Arg(Me)-Trp-NH2] (Ac-[dY][dW]D(NHBn)TF[azaGly]L[Arg(Me)]W-NH2)",3.6
9,"CNC(=N)NCCC[C@H](NC(=O)[C@H](CC(C)C)NC(=O)NNC(=O)[C@H](Cc1ccc(Cl)cc1)NC(=O)[C@@H](NC(=O)[C@H](CC(N)=O)NC(=O)[C@@H](Cc1c[nH]c2ccccc12)NC(=O)[C@@H](Cc1ccc(O)cc1)NC(C)=O)[C@@H](C)O)C(=O)N[C@@H](Cc1c[nH]c2ccccc12)C(N)=O [Compound No. 748, Ac-D-Tyr-D-Trp-Asn-Thr-Phe(4Cl)-AzaGly-Leu-Arg(Me)-Trp-NH2] (Ac-[dY][dW]NT[Phe(4-Cl)][azaGly]L[Arg(Me)]W-NH2)",0.4

# More lines, now with the values ahead:
row,Specific Activity: intracellular Ca ion level-increasing activity [specific activity to Metastin (1-54)],Compound
1,1.7,"CNC(=N)NCCC[C@H](NC(=O)[C@H](CC(C)C)NC(=O)NNC(=O)[C@H](Cc1ccccc1)NC(=O)[C@@H](NC(=O)[C@H](CC(N)=O)NC(=O)[C@@H]1CNCCN1C(=O)[C@@H](Cc1ccc(O)cc1)NC(C)=O)[C@@H](C)O)C(=O)N[C@@H](Cc1c[nH]c2ccccc12)C(N)=O [Compound No. 760, Ac-D-Tyr-Pzc(2)-Asn-Thr-Phe-AzaGly-Leu-Arg(Me)-Trp-NH2] (Ac-[dY][Pip(4-aza)]NTF[azaGly]L[Arg(Me)]W-NH2)"
2,0.7,"CNC(=N)NCCC[C@H](NC(=O)[C@H](CC(C)C)NC(=O)NNC(=O)[C@H](Cc1ccccc1)NC(=O)[C@@H](NC(=O)[C@H](CC(N)=O)NC(=O)[C@@H]1C[C@@H](F)CN1C(=O)[C@@H](Cc1ccc(O)cc1)NC(C)=O)[C@@H](C)O)C(=O)N[C@@H](Cc1c[nH]c2ccccc12)C(N)=O [Compound No. 897, Ac-D-Tyr-Pro(4F)-Asn-Thr-Phe-AzaGly-Leu-Arg(Me)-Trp-NH2] (Ac-[dY][Pro(trans-4-F)]NTF[azaGly]L[Arg(Me)]W-NH2)"
3,1.9,"CNC(=N)NCCC[C@H](NC(=O)[C@H](CC(C)C)NC(=O)NNC(=O)[C@H](Cc1ccccc1)NC(=O)[C@@H](NC(=O)[C@H](CC(N)=O)NC(=O)[C@H](CCCN)NC(=O)[C@@H](Cc1ccc(O)cc1)NC(C)=O)[C@@H](C)O)C(=O)N[C@@H](Cc1c[nH]c2ccccc12)C(N)=O [Compound No. 771, Ac-D-Tyr-Orn-Asn-Thr-Phe-AzaGly-Leu-Arg(Me)-Trp-NH2] (Ac-[dY][Orn]NTF[azaGly]L[Arg(Me)]W-NH2)"
4,2.0,"CNC(=N)NCCC[C@H](NC(=O)[C@H](CC(C)C)NC(=O)NNC(=O)[C@H](Cc1ccccc1)NC(=O)[C@@H](NC(=O)[C@H](CC(N)=O)NC(=O)C(CC1CCNCC1)NC(=O)[C@@H](Cc1ccc(O)cc1)NC(C)=O)[C@@H](C)O)C(=O)N[C@@H](Cc1c[nH]c2ccccc12)C(N)=O (mixture of isomers) [Compound No. 774, Ac-D-Tyr-DL-Ala(Pip)-Asn-Thr-Phe-AzaGly-Leu-Arg(Me)-Trp-NH2]"
5,1.1,"CNC(=N)NCCC[C@H](NC(=O)[C@H](CC(C)C)NC(=O)NNC(=O)[C@H](Cc1ccccc1)NC(=O)[C@@H](NC(=O)[C@H](CC(N)=O)NC(=O)[C@@H]1C[C@@H](O)CN1C(=O)[C@H](Cc1ccc(O)cc1)NC(C)=O)[C@@H](C)O)C(=O)N[C@@H](Cc1c[nH]c2ccccc12)C(N)=O [Compound No. 899, Ac-Tyr-Hyp-Asn-Thr-Phe-AzaGly-Leu-Arg(Me)-Trp-NH2] (Ac-Y[Hyp]NTF[azaGly]L[Arg(Me)]W-NH2)"
6,1.9,"CNC(=N)NCCC[C@H](NC(=O)[C@H](CC(C)C)NC(=O)NNC(=O)[C@H](Cc1ccc(Cl)cc1)NC(=O)[C@@H](NC(=O)[C@H](CC(N)=O)NC(=O)[C@H](CCC(=O)O)NC(=O)[C@@H](Cc1ccc(O)cc1)NC(C)=O)[C@@H](C)O)C(=O)N[C@@H](Cc1c[nH]c2ccccc12)C(N)=O [Compound No. 759, Ac-D-Tyr-Glu-Asn-Thr-Phe(4Cl)-AzaGly-Leu-Arg(Me)-Trp-NH2] (Ac-[dY]ENT[Phe(4-Cl)][azaGly]L[Arg(Me)]W-NH2)"
7,3.3,"CNC(=N)NCCC[C@H](NC(=O)[C@H](CC(C)C)NC(=O)NNC(=O)[C@H](Cc1cccc(F)c1)NC(=O)[C@@H](NC(=O)[C@H](CC(N)=O)NC(=O)C(C)(C)NC(=O)[C@@H](Cc1ccc(O)cc1)NC(C)=O)[C@@H](C)O)C(=O)N[C@@H](Cc1c[nH]c2ccccc12)C(N)=O [Compound No. 786, Ac-D-Tyr-Aib-Asn-Thr-Phe(3F)-AzaGly-Leu-Arg(Me)-Trp-NH2] (Ac-[dY][Aib]NT[Phe(3-F)][azaGly]L[Arg(Me)]W-NH2)"
8,0.5,"CNC(=N)NCCC[C@H](NC(=O)[C@H](CC(C)C)NC(=O)NNC(=O)[C@H](Cc1ccccc1)NC(=O)[C@@H](C)NC(=O)[C@H](CC(N)=O)NC(=O)[C@@H]1C[C@@H](O)CN1C(=O)[C@@H](Cc1ccc(O)cc1)NC(C)=O)C(=O)N[C@@H](Cc1c[nH]c2ccccc12)C(N)=O [Compound No. 815, Ac-D-Tyr-Hyp-Asn-D-Ala-Phe-AzaGly-Leu-Arg(Me)-Trp-NH2] (Ac-[dY][Hyp]N[dA]F[azaGly]L[Arg(Me)]W-NH2)"
9,2.7,"CNC(=N)NCCC[C@H](NC(=O)[C@H](CC(C)C)NC(=O)NNC(=O)[C@H](Cc1ccc(F)cc1)NC(=O)[C@@H](NC(=O)[C@H](CC(N)=O)NC(=O)[C@H](CCC(=O)O)NC(=O)[C@@H](Cc1ccc(O)cc1)NC(C)=O)[C@@H](C)O)C(=O)N[C@@H](Cc1c[nH]c2ccccc12)C(N)=O [Compound No. 788, Ac-D-Tyr-Glu-Asn-Thr-Phe(4F)-AzaGly-Leu-Arg(Me)-Trp-NH2] (Ac-[dY]ENT[Phe(4-F)][azaGly]L[Arg(Me)]W-NH2)"
10,2.9,"CNC(=N)NCCC[C@H](NC(=O)[C@H](CC(C)C)NC(=O)NNC(=O)[C@H](Cc1ccc(F)cc1)NC(=O)[C@@H](NC(=O)[C@H](CC(N)=O)NC(=O)C(C)(C)NC(=O)[C@@H](Cc1ccc(O)cc1)NC(C)=O)[C@@H](C)O)C(=O)N[C@@H](Cc1c[nH]c2ccccc12)C(N)=O [Compound No. 791, Ac-D-Tyr-Aib-Asn-Thr-Phe(4F)-AzaGly-Leu-Arg(Me)-Trp-NH2] (Ac-[dY][Aib]NT[Phe(4-F)][azaGly]L[Arg(Me)]W-NH2)"
